In PubChem BioAssay AID268 (DTP/NCI, 2004):
Where “and” joins values, the source holds several entries; their conditions need not be identical. Equal entries are not always repeated.

Test system: CD2F1 mice, P1798 lymphosarcoma sc, tumor weight T/C
Assay: NCI In Vivo Anticancer Drug Screen. Data for tumor model P1798 Lymphosarcoma (subcutaneous) in CD2F1 (CDF1) mice
Conditions: higher = larger tumour
Experimental: The antitumor activity of compounds was measured in mice bearing transplantable tumors. Survival or tumor size were measured and the results are expressed as the measurement made in the treated group (T) divided by the measurement made in the vehicle treated control group (C). The tumor model used in this assay is P1798 Lymphosarcoma (subcutaneous) in CD2F1 (CDF1) mice

[1] = endpoint: mean tumor weight, dose: 12.5 mg/kg/injection, schedule: Q01DX005 (sc), vehicle: steriod suspending solution
[2] = endpoint: mean tumor weight, dose: 12.5 mg/kg/injection, schedule: Q01DX010 (sc), vehicle: steriod suspending solution
[3] = endpoint: mean tumor weight, dose: 25.0 mg/kg/injection, schedule: Q01DX005 (sc), vehicle: steriod suspending solution
[4] = endpoint: mean tumor weight, dose: 25.0 mg/kg/injection, schedule: Q01DX010 (sc), vehicle: steriod suspending solution
[5] = endpoint: mean tumor weight, dose: 25.0 mg/kg/injection, schedule: Q02DX010 (sc), vehicle: steriod suspending solution
[6] = endpoint: mean tumor weight, dose: 50.0 mg/kg/injection, schedule: Q01DX010 (ip), vehicle: saline
[7] = endpoint: mean tumor weight, dose: 100.0 mg/kg/injection, schedule: Q01DX010 (ip), vehicle: saline
[8] = endpoint: mean tumor weight, dose: 400.0 mg/kg/injection, schedule: Q01DX010 (ip), vehicle: saline
[9] = endpoint: mean tumor weight, dose: 8.0 mg/kg/injection, schedule: Q01DX010 (ip), vehicle: saline
[10] = endpoint: mean tumor weight, dose: 25.0 mg/kg/injection, schedule: Q01DX010 (ip), vehicle: saline
[11] = endpoint: mean tumor weight, dose: 31.3 mg/kg/injection, schedule: Q01DX010 (ip), vehicle: saline
[12] = endpoint: mean tumor weight, dose: 125.0 mg/kg/injection, schedule: Q01DX010 (ip), vehicle: saline
[13] = endpoint: mean tumor weight, dose: 250.0 mg/kg/injection, schedule: Q01DX010 (ip), vehicle: saline

CC(=O)O[C@]1(C(C)=O)CC[C@H]2[C@@H]3C[C@H](C)C4=CC(=O)C=C[C@]4(C)[C@@]3(F)[C@@H](O)C[C@@]21C
T/C [1]: 32 % of control
T/C [2]: 37 % of control and 39 % of control
T/C [3]: 13 % of control
T/C [4]: 15 % of control and 16 % of control and 36 % of control
T/C [5]: 105 % of control
T/C (endpoint: mean tumor weight, dose: 50.0 mg/kg/injection, schedule: Q01DX005 (sc), vehicle: steriod suspending solution): 1 % of control
T/C (endpoint: mean tumor weight, dose: 50.0 mg/kg/injection, schedule: Q02DX010 (sc), vehicle: steriod suspending solution): 101 % of control
T/C (endpoint: mean tumor weight, dose: 100.0 mg/kg/injection, schedule: Q01DX005 (sc), vehicle: steriod suspending solution): 3 % of control
T/C (endpoint: mean tumor weight, dose: 100.0 mg/kg/injection, schedule: Q02DX010 (sc), vehicle: steriod suspending solution): 105 % of control

CC(=O)NCCCCCCNC(C)=O
T/C [6]: 112 % of control
T/C [7]: 95 % of control
T/C (endpoint: mean tumor weight, dose: 200.0 mg/kg/injection, schedule: Q01DX010 (ip), vehicle: saline): 119 % of control
T/C [8]: 86 % of control

O=C(Nc1ccc(NC2=NCCN2)cc1)c1ccc(C(=O)Nc2ccc(NC3=NCCN3)cc2)cc1
T/C (endpoint: mean tumor weight, dose: 2.0 mg/kg/injection, schedule: Q01DX010 (ip), vehicle: saline): 78 % of control
T/C (endpoint: mean tumor weight, dose: 4.0 mg/kg/injection, schedule: Q01DX010 (ip), vehicle: saline): 81 % of control
T/C [9]: 36 % of control

OC(CBr)C(O)C(O)C(O)CBr (centres undefined)
T/C [10]: 62 % of control
T/C [6]: 70 % of control and 84 % of control
T/C [8]: 98 % of control

NCCCCCCNCCCCCCN
T/C (endpoint: mean tumor weight, dose: 6.25 mg/kg/injection, schedule: Q01DX010 (ip), vehicle: saline): 90 % of control
T/C (endpoint: mean tumor weight, dose: 12.5 mg/kg/injection, schedule: Q01DX010 (ip), vehicle: saline): 89 % of control
T/C [10]: 100 % of control and 78 % of control
T/C [6]: 50 % of control and 70 % of control

Cc1ccc2[nH]c3nc4cc(C)c(C)cc4nc3c2c1
T/C [6]: 93 % of control
T/C [7]: 76 % of control

C[C@@H]1C[C@H]2[C@@H]3CCC4=CC(=O)C=C[C@]4(C)[C@@]3(F)[C@@H](O)C[C@]2(C)[C@@]1(O)C(=O)CO
T/C (endpoint: mean tumor weight (est.), dose: 3.13 mg/kg/injection, schedule: Q01DX016 (sc), vehicle: saline): 55 % of control
T/C (endpoint: mean tumor weight (est.), dose: 6.25 mg/kg/injection, schedule: Q01DX016 (sc), vehicle: saline): 7 % of control
T/C (endpoint: mean tumor weight, dose: 3.13 mg/kg/injection, schedule: Q01DX005 (sc), vehicle: steriod suspending solution): 33 % of control
T/C (endpoint: mean tumor weight, dose: 3.13 mg/kg/injection, schedule: Q01DX010 (sc), vehicle: steriod suspending solution): 5 % of control
T/C (endpoint: mean tumor weight, dose: 6.25 mg/kg/injection, schedule: Q01DX005 (sc), vehicle: steriod suspending solution): 8 % of control
T/C (endpoint: mean tumor weight, dose: 6.25 mg/kg/injection, schedule: Q02DX010 (sc), vehicle: steriod suspending solution): 116 % of control
T/C [1]: 4 % of control
T/C (endpoint: mean tumor weight, dose: 12.5 mg/kg/injection, schedule: Q02DX010 (sc), vehicle: steriod suspending solution): 98 % of control
T/C [3]: 1 % of control
T/C [5]: 56 % of control

COc1ccc2c(c1OC)C(=O)O[C@@H]2[C@H]1c2c(cc3c(c2OC)OCO3)CCN1C
T/C (endpoint: mean tumor weight, dose: 15.6 mg/kg/injection, schedule: Q01DX010 (ip), vehicle: saline): 107 % of control
T/C [11]: 78 % of control
T/C [12]: 97 % of control
T/C [13]: 78 % of control

CCCCCC(=O)O[C@]1(C(C)=O)CC[C@H]2[C@@H]3CCC4=CC(=O)CC[C@]4(C)[C@H]3CC[C@@]21C
T/C (endpoint: mean tumor weight, dose: 250.0 mg/kg/injection, schedule: Q01DX010 (sc), vehicle: steriod suspending solution): 110 % of control
T/C (endpoint: mean tumor weight, dose: 375.0 mg/kg/injection, schedule: Q01DX010 (sc), vehicle: steriod suspending solution): 106 % of control
T/C (endpoint: mean tumor weight, dose: 500.0 mg/kg/injection, schedule: Q01DX010 (sc), vehicle: steriod suspending solution): 114 % of control
T/C (endpoint: mean tumor weight, dose: 750.0 mg/kg/injection, schedule: Q01DX010 (sc), vehicle: steriod suspending solution): 109 % of control

C[C@]12CC[C@@H]3c4ccc(O)cc4CC[C@H]3[C@@H]1CC(=O)[C@@H]2O
T/C [2]: 94 % of control and 89 % of control
T/C [4]: 92 % of control and 96 % of control
T/C (endpoint: mean tumor weight, dose: 50.0 mg/kg/injection, schedule: Q01DX010 (sc), vehicle: steriod suspending solution): 78 % of control and 86 % of control

Nc1c(Br)cc2c(c1Br)Cc1cc([N+](=O)[O-])ccc1-2
T/C [11]: 72 % of control
T/C (endpoint: mean tumor weight, dose: 62.5 mg/kg/injection, schedule: Q01DX010 (ip), vehicle: saline): 78 % of control
T/C [12]: 61 % of control
T/C [13]: 62 % of control

CN1CC[C@]23c4c5ccc(O)c4O[C@H]2C(=O)CC[C@H]3[C@H]1C5
T/C [9]: 94 % of control and 80 % of control
T/C (endpoint: mean tumor weight, dose: 16.0 mg/kg/injection, schedule: Q01DX010 (ip), vehicle: saline): 76 % of control and 79 % of control
T/C (endpoint: mean tumor weight, dose: 32.0 mg/kg/injection, schedule: Q01DX010 (ip), vehicle: saline): 74 % of control and 85 % of control
T/C (endpoint: mean tumor weight, dose: 64.0 mg/kg/injection, schedule: Q01DX010 (ip), vehicle: saline): 93 % of control and 70 % of control

C1CN1c1nc(N2CC2)nc(N2CC2)n1
T/C (endpoint: mean tumor weight, dose: 0.06 mg/kg/injection, schedule: Q01DX010 (ip), vehicle: saline): 114 % of control
T/C (endpoint: mean tumor weight, dose: 0.5 mg/kg/injection, schedule: Q01DX010 (ip), vehicle: saline): 29 % of control and 37 % of control

CC(=O)c1ccccc1C
T/C (endpoint: mean tumor weight, dose: 18.0 mg/kg/injection, schedule: Q01DX010 (ip), vehicle: saline): 44 % of control
T/C (endpoint: mean tumor weight, dose: 27.0 mg/kg/injection, schedule: Q01DX010 (ip), vehicle: saline): 42 % of control
T/C (endpoint: mean tumor weight, dose: 40.0 mg/kg/injection, schedule: Q01DX010 (ip), vehicle: saline): 42 % of control
